Measured values taken from paper PMC4370873, “The RNA Template Channel of the RNA-Dependent RNA Polymerase as a Target for Development of Antiviral Therapy of Multiple Genera within a Virus Family” (PLoS Pathogens, 2015).

Molecular target: T1, EMCV 3Dpol (Mengo virus, UniProt P12296)
T1 construct: mature 3Dpol cut from polyprotein (1834 to 2293, 460 residues); cleavable His6-thioredoxin tag (pETG20A) removed; expressed in E. coli Rosetta (DE3) pLysS
Assay: [3H]UTP incorporation on poly(rA)/dT15, filter binding
Format: biochemical

T1 sequence (P12296 1834-2293): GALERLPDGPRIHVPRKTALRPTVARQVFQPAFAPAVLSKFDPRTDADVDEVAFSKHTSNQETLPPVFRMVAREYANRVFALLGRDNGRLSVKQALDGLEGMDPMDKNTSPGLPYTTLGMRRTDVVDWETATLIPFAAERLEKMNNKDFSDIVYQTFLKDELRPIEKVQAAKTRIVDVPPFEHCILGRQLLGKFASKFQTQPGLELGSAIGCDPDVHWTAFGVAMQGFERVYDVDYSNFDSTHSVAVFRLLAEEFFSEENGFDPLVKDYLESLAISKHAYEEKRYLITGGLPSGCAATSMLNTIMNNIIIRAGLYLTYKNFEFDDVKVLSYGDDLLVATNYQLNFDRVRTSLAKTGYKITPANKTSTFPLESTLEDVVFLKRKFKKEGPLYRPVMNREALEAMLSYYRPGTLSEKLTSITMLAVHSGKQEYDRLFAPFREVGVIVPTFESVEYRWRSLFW

Compound `N#Cc1cc([N+](=O)[O-])ccc1Oc1ccc(Cl)cc1Oc1ccc([N+](=O)[O-])cc1C#N` [GPC-N114, 2,2'-[(4-chloro-1,2-phenylene)bis(oxy)]bis(5-nitro-benzonitrile)] has a Ki of 1300 nM.
